The target of one assay is MMNAT (Mycobacterium marinum, UniProt B2HIZ6). Briefly: NAT-inhibition assay (Ac-CoA hydrolysis with hydralazine, Ellman's reagent). The class given is biochemical, M. marinum. Particulars: 150 µM HLZ, 120 µM Ac-CoA, 24°C. The protocol: An assay for measuring the formation of CoA was used to determine the activity of the enzyme in the presence of potential inhibitors. All the tested compounds were dissolved in dimethylsulphoxide (DMSO) and all reactions were carried out in the presence of 5% (v/v) DMSO. The enzyme (100–150 ng) was mixed with the inhibitors 1–5 (5 µL at a final concentration of 0–250 µM) and incubated for 15 min at 24°C prior to starting the reaction by adding 15 µL hydralazine and 12 µL Ac-CoA at final concentrations of 150 µM and 120 µM respectively, in a final total volume of 100 µL of 20 mM Tris-HCl pH 8. The assay was performed as an end-point read out measurement by stopping the reaction after 10 min at 24°C using 25 µL Ellman's reagent (5 mM 5,5′-dithiobis-(2-nitrobenzoate) solution in 6.4 M guanidine-HCl and 100 mM Tris-HCl, pH 7.3). The absorbance was measured at a wavelength of 405 nm within 2 min (Tecan Sunrise Plate Reader). The assays were repeated using a 10-fold enzyme concentration to exclude promiscuous non-specific inhibitors. The activity of the enzyme in the presence of 5% (v/v) DMSO was measured as a control. Inhibition values were determined as the ratio of the enzyme activity (expressed as the rate of CoA formation per microgram protein (µM/min.µg)) with the requisite compound, to the activity of the control without inhibitor. IC50 values were determined from the inhibition curves which were obtained by non-linear fitting of the % inhibition and the inhibitor concentration (µM) using the Log(inhibitor) vs. response module of GraphPad Prism 5.0.
MMNAT, sequence (B2HIZ6 entry or part of it): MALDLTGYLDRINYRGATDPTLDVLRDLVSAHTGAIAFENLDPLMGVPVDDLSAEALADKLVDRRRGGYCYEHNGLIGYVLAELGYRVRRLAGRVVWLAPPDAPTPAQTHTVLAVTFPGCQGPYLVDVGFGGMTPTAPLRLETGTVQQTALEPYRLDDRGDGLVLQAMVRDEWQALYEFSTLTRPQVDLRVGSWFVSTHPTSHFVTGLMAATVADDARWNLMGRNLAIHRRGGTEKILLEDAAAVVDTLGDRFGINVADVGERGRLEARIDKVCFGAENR

In the next assay the test system is M. bovis BCG. The experiment in a line: microbe, parasite or virus in culture. Type of assay: cell-based. Particulars: Mycobacterium tuberculosis variant bovis BCG, BCG, 336 h, read-out: MIC M. bovis BCG.
Another assay relates to M. tuberculosis H37Rv. Briefly: Mycobacterial growth inhibition in vitro (spot culture on solid medium). The class given is cell-based. The settings on record: Mycobacterium tuberculosis, H37RV, 336 h, read-out: MIC M. tuberculosis.
In assay [1] the target is T1, TBNAT (Mycobacterium tuberculosis, UniProt P9WJI5).
T1 construct: made in house
T1 sequence (P9WJI5 whole entry): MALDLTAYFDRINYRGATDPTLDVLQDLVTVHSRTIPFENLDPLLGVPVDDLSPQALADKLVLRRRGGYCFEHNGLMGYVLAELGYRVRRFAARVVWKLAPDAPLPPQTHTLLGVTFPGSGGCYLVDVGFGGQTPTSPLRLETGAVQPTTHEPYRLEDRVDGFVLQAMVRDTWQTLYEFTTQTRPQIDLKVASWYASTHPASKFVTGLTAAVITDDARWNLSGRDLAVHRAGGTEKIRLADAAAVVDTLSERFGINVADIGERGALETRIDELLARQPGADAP
The experiment in a line: Reversibility of inhibition by dialysis. The class given is biochemical, M. tuberculosis. Particulars: 15-fold molar excess, 1 h at 24°C, dialysis 16 h at 4°C. As to the method: Figure 3 Reversibility of the inhibition of TBNAT and MMNAT by compound 1. Each enzyme (MMNAT, TBNAT, 0.07 mM, 50 µL) was preincubated either alone or with 15-fold molar excess 1 at 24°C for 1 h. Each sample was then dialysed against 1 L fresh assay buffer (20 mM Tris-HCl pH 8) at 4°C for 16 h. The enzyme activities of the samples were measured before dialysis and then measured after dialysis by measuring the rate of Ac-CoA hydrolysis in the presence of HLZ as described in Methods. The mean ± S.D. of three measurements of the activity is shown. Loss of enzyme activity upon dialysis is likely to be due to the oxidation of the active site sulfhydryl group, especially since dialysis was performed in the absence of dithiothreitol.
For the reversibility studies, excess inhibitor was […] by dialysis. Each enzyme (0.07 mM MMNAT or TBNAT in 20 mM Tris-HCl pH 8 and 5% (v/v) DMSO) was preincubated either alone or with 15-fold molar excess of compound 1 in a final volume of 50 µL at 24°C for 1 h. Each sample was then dialysed against 1 L fresh assay buffer (20 mM Tris-HCl pH 8) at 4°C for 16 h. The enzyme activities of the samples were measured before dialysis and then measured after dialysis by measuring the rate of Ac-CoA (120 µM) hydrolysis in the presence of 150 µM HLZ.

Another assay has as its target T2, hamster NAT2 (shNAT2) (Mesocricetus auratus, UniProt P50293).
T2 construct: made in house
T2 sequence (P50293 1-290): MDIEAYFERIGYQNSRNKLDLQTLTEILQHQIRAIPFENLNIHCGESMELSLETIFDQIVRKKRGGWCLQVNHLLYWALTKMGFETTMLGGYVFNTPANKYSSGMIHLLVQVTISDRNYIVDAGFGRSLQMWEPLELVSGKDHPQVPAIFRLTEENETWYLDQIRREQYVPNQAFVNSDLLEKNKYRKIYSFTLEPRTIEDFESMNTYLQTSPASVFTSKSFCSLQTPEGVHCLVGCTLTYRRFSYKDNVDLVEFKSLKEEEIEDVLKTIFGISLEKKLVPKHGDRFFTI
Briefly: Specificity panel of recombinant NAT enzymes (Ac-CoA hydrolysis with 5ASA). The class given is biochemical. The settings on record: 30 µM. As to the method:
(§1) Figure 2 Specificity of compound 1 for prokaryotic NAT enzymes. Compound 1 was tested at 30 µM against pure recombinant NAT enzymes from M. smegmatis (MSNAT), P. aeruginosa (PANAT), S. typhimurium (STNAT), MMNAT and TBNAT, and also against two eukaryotic enzymes, hamster NAT2 (shNAT2) and human NAT1. The results are shown as the mean ± S.D. of triplicate determinations of the percentage inhibition of hydrolysis of Ac-CoA in the presence of 5-aminosalicylic acid (5ASA) and against TBNAT using hydralazine as a substrate. The inhibition is represented as a percentage compared to an uninhibited control from triplicate measurements. The structure of compound 1 is shown and the piperidinol nucleus is highlighted by the shaded area.

For another assay, the target named is T3, human NAT1 (Homo sapiens, UniProt P18440).
T3 construct: made in house
T3 sequence (P18440 1-290): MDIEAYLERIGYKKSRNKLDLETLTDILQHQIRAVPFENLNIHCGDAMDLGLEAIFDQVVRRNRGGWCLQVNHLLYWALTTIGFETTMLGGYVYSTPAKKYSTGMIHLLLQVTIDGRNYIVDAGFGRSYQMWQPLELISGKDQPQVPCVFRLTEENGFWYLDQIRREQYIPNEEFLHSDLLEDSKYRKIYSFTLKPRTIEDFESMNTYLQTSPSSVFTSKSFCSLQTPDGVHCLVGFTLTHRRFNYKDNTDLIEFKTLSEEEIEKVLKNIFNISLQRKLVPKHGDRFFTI
Described as above. The class given is biochemical. Particulars: 30 µM. As to the method:
as §1

Assay [2] concerns the target T1, TBNAT. Briefly: ESI-MS analysis of covalent enzyme-inhibitor adducts. Particulars: enzyme-to-inhibitor ratio 1∶15; proposed number of inhibition species bound per protein molecule. Type of assay: binding, M. tuberculosis.
A further assay relates to M. tuberculosis. Also noted: method as in PMID 13402115. The settings on record: cited from earlier work.

Values after ≈ are worked out from the molar mass of the structure shown. Values joined by “and” are separate entries in the source; they are usually repeats but may differ in a detail not shown here. Identical values can stand only once. Like-named read-outs stand apart in the source and are kept apart here.

Data on one compound can be found in article PMC3532304, “Piperidinols That Show Anti-Tubercular Activity as Inhibitors of Arylamine N-Acetyltransferase: An Essential Enzyme for Mycobacterial Survival Inside Macrophages” (PLoS ONE, 2012).

Regarding `CN1CCC(O)(c2ccccc2)C(C(=O)c2ccccc2)C1` (stereo not shown) [compound 1, (4-hydroxy-1-methyl-4-phenylpiperidin-3-yl)(phenyl)methanone], the inhibition at 50 µM at MMNAT (50 µM inhibitor, mean ± S.D. of triplicate, read-out: MMNAT % Inhibition) was determined as 105 ± 1%. In addition, at MMNAT (mean ± S.D.), inhibition was half-maximal at 1300 nM (IC50). Besides, the MIC with M. bovis BCG was 21.3 to 42.3 µM (≈ 6.29 to 12.5 µg/mL); in the assay with M. tuberculosis H37Rv, 3.4 to 16.9 µM (≈ 1 to 4.99 µg/mL). The “restoration of enzyme activity by dialysis (TBNAT)” value at TBNAT [1] is given as “completely ineffective in restoring the activity”. Further, the “inhibition of eukaryotic NAT (hamster NAT2)” value on hamster NAT2 (shNAT2) is reported as “did not show significant inhibition”. Moreover, on human NAT1, the “inhibition of eukaryotic NAT (human NAT1)” value is “did not show significant inhibition”. Further, the “Molar ratio (inhibitor/protein) (TBNAT)” value on TBNAT [2] is 1 and 2. The “minimum inhibitory concentration (MIC) against M. tuberculosis” value in the assay on M. tuberculosis (conversion of the µg/mL value) is listed as ~17 µM (≈ 5.02 µg/mL); in the assay on M. tuberculosis (reported over 50 years ago), “less than 5 µg/mL”.
